Article PMC10141580, “Cyclic Dichalcogenides Extend the Reach of Bioreductive Prodrugs to Harness Thiol/Disulfide Oxidoreductases: Applications to seco-Duocarmycins Targeting the Thioredoxin System” (ACS Central Science, 2023)

Tests used:
[1] = test system: 4T1 murine breast cancer; assay: 4T1 orthotopic breast cancer efficacy study; assay type: in vivo; settings: 4T1 in Balb/c mice; CBI prodrugs 3 mg/kg
From the text: (§1) We then moved to in vivo anticancer efficacy trials of these prodrugs. […] As one model we chose the syngeneic murine breast cancer 4T1, implanted orthotopically (at the native tissue site) into the fat pad of immunocompetent Balb/c mice (i.e., offering a realistic immune system and tumor microenvironment). This model gives rapid, aggressive tumor growth.[52] As a second model, we chose to xenograft human BxPC-3 pancreatic adenocarcinoma cells into immunodeficient hosts. This is a slower-growing model, with low metastasis, that can be more resistant to traditional antimitotic therapy.[53],[54] Mice were implanted, randomized once tumors reached 100–150 mm^3 volume, and treated once or twice weekly with prodrug or control compounds typically at 3 mg/kg (8–12 animals per condition, Figure 10a). Tumors were measured by caliper during the assay and weighed at termination.
7. 2. in vivo efficacy mouse studies
4T1 efficacy study BxPC-3 efficacy study a Absolute tumour volumes b Absolute tumour volumes […]
days after tumor implantation days after tumor implantation c Relative tumour volumes d Relative tumour volumes […]
e RTV! fi"al day of followu# f ex viv tumour weights g RTV! fi"al day of followu# h ex viv tumour weights (. mice remain in all *roups) (for animals left at day 31)(all *roups have statistical power)(day "2/ all animals left) […]
vehicle(1x)(1x)(1x) (2x)(2x) […]
P-##"0-#$%-&'%P-!!"0-#$%-&'%P-!!"0-#$%-()%P-!!"0-#$%-&'% %rinotecan %rinotecan P-##"0-#$%-&'%P-!!"0-#$%-()%P-!!"0-#$%-&'%P-!!"0-#$%-&'% P-!!"0-#$%-&'% P-!!"0-#$%-&'% […]
i Body weights $ Body weights […]
implant in Balb/c mice, 8 mice per group; (b, d,g,h,j): BxPC-3 subcutaneous xenograft in NMRi mice, 8 mice per […]
treatment (m e d ia n); (e,g) in vivo caliper measurement of relative tum or volumes at final day of followup [last day when all mice in all groups remain in the study] […]
tumor weights at termination of study (only mice not terminated on ethical grounds before the indicated days were harvested); (i,j) Bodyweights (means).
(BxPC-3 study); dotted vertical lines indicate days of [potential] treatment.

[2] = test system: Balb/c mice; assay: Moderate repeated dosing tolerability study; assay type: in vivo; settings: once weekly
Procedure: Next, a moderate repeated dosing study in Balb/c mice (3 animals per group) tested the importance of solubilizing the prodrugs.
Methods for in vivo animal studies
All in vivo studies were conducted as contract research together with React ionBiology Eur ope G mbH (Freiburg,
Germany), EPO – Experimental Pharmacology & Oncology GmbH (Berlin, Germany); Bient a/ Enam ine Lt d. (Kyiv,
Ukraine) and Leit at – Managing Technologies (Barcelona, Spain), adhering to the respective animal welfare
Mice were kept in individually ventilated cages at constant temperature (22±2 °C, air-conditioned) and humidity (45
– 65%), under optimum hygienic conditions with 10 – 15 air changes per hour. A cycle of 12 h artificial fluorescent
light ning and 12 h darkness was applied , and animal behavior was monitored daily throughout the studies. The
animals received food and water ad libit um.
To evaluate toxicity of selected compounds, dose level selection studies within dose range from 0.1 mg/kg to
10 mg/kg were performed by intravenous administration into Balb /c mice. Each dose for each tested compound
was administered in one mouse.
changes and clinical signs of gross toxicity three tim es per week for 21 consecutive days of post-dosing period.
After the first week of observation without adverse events, two doses for each test compound were selected as
tolerated. These two doses were tested in two additional mice for confirmation of toler ability. Additional animals
consecutive days of post-dosing period. Toxicity of repeated administrations was tested wit h t hr ee repeat ed pr e-
selected doses at a dosing interval of 7 days. Mortality, body weight changes, and clinical signs of gross toxicity
were monitored after each drug administration and three times per week for 21 consecutive days after the first
compound administration. Bleed ing with subsequent hematological tests, clinical chemistry parameters analysis
(ALT, AST, ALP, LDH, creatine kinase, creatinine, urea, cholesterol, and triglycerides), and necropsy with
macroscopic inspection were performed on the terminal day of the repeated dosing-regime.
To test tolerability of selected compounds in vivo, female BALB/c mice were randomized by weight into seven
groups of t hree animals.

[3] = test system: human BxPC-3 pancreatic adenocarcinoma; assay: BxPC-3 xenograft efficacy study; assay type: in vivo, athymic nu/nu NMRI mice
From the text: as §1
Finally, we tested P-SS60-CBI-TMI in the slower-growing pancreatic cancer model BxPC-3 in athymic NMRI mice (8 animals per group). […]

Structure (SMILES)	effect on tumor growth [1]	outcome of repeated dosing at 3 mg/kg [2]	tumor suppression vs irinotecan ([3]; BxPC-3, 3 mg/kg vs irinotecan 10 mg/kg)	tumor growth rate suppression ([3]; BxPC-3, once-weekly 3 mg/kg, over 4 weeks)
COc1cc2cc(C(=O)N3C[C@@H](CCl)c4c3cc(OC(=O)N(CCC(=O)N3CCN(C)CC3)C3CCCCC3)c3ccccc43)[nH]c2c(OC)c1OC [P-CC60-CBI-TMI]	delayed tumor growth in the first week of treatment	–	–	–
COc1cc2cc(C(=O)N3C[C@@H](CCl)c4c3cc(OC(=O)N(CCC(=O)N3CCN(C)CC3)[C@H]3CCSSC3)c3ccccc43)[nH]c2c(OC)c1OC [P-SS60-CBI-TMI]	maintained statistically significant tumor suppression until study termination	tolerated	almost identical tumor suppression	ca. 70%
